Test results taken from patent US20150105252A1, “SUBSTITUTED PYRAZOLES AS HERBICIDES” (E I DU PONT DE NEMOURS AND COMPANY, priority 2013, published 2015).

What was measured:
soybean = experiment: Test F preemergence; format: in vivo, Glycine max
From the text: (§1) Seeds of plant species selected from corn (Zea mays), soybean (Glycine max), velvetleaf (Abutilon theophrasti), lambsquarters (Chenopodium album), wild poinsettia (Euphorbia heterophylla), pigweed, palmer (palmer pigweed, Amaranthus palmeri), common waterhemp (Amaranthus rudis), surinam grass (Brachiaria decumbens), large crabgrass (Digitaria sanguinalis), crabgrass, Brazil (Brazilian crabgrass, Digitaria horizontalis), fall panicum (Panicum dichotomiflorum), giant foxtail (Setaria faberii), green foxtail (Setaria viridis), goosegrass (Eleusine indica), johnsongrass (Sorghum halepense), common ragweed (Ambrosia elation), barnyardgrass (Echinochloa crus-galli), southern sandbur (Cenchrus echinatus), arrowleaf sida (Sida rhombifolia), Italian ryegrass (Lolium multiflorum), dayflower, VA (Virginia (VA) dayflower, Commelina virginica), field bindweed (Convolvulus arvensis), cocklebur (common cocklebur, Xanthium strumarium), morningglory (Ipomoea coccinea), nightshade (eastern black nightshade, Solanum ptycanthum), kochia (Kochia scoparia), yellow nutsedge (Cyperus esculentus), and hairy beggarticks (Bidens pilosa), were planted into a silt loam soil and treated preemergence with test chemicals formulated in a non-phytotoxic solvent mixture which included a surfactant.
(§2) At the same time, plants from these crop and weed species and also horseweed (Canada horseweed, Conyza canadensis), smartweed (ladysthumb smartweed, Polygonum persicaria), waterhemp_RES1, (ALS & Triazine resistant common waterhemp, Amaranthus rudis), and waterhemp_RES2, (ALS & HPPD resistant common waterhemp, Amaranthus rudis) were treated with postemergence applications of test chemicals formulated in the same manner. Plants ranged in height from 2 to 18 cm for postemergence treatments (1- to 4-leaf stage). Treated plants and controls were maintained in a greenhouse for 14 to 21 days, after which time all species were compared to controls and visually evaluated. Plant response ratings, summarized in Table F, are based on a scale of 0 to 100 where 0 is no effect and 100 is complete control. A dash (-) response means no test result.

velvetleaf = experiment: Test F preemergence; format: in vivo, Abutilon theophrasti
From the text: as §1, §2

common waterhemp = experiment: Test F preemergence; format: in vivo, Amaranthus rudis
From the text: as §1, §2

crabgrass, Brazil = experiment: Test F preemergence; format: in vivo, Digitaria horizontalis
From the text: as §1, §2

giant foxtail = experiment: Test F preemergence; format: in vivo, Setaria faberii
From the text: as §1, §2

arrowleaf sida = experiment: Test F preemergence; format: in vivo, Sida rhombifolia
From the text: as §1, §2

kochia [1] = experiment: Test A preemergence; format: in vivo, Kochia scoparia
How it was run: (§3)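 Seeds were sown in a loam soil–sand blend and given a directed soil spray preemergence; postemergence plants at 2–10 cm, one- to two-leaf stage, were sprayed with compound in non-phytotoxic solvent with surfactant. After about 10 days in a greenhouse, injury was visually rated against untreated controls (0 = no effect, 100 = complete control).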

kochia [2] = experiment: Test A postemergence; format: in vivo, Kochia scoparia
How it was run: as §3

common ragweed = experiment: Test A postemergence; format: in vivo, Ambrosia elation
How it was run: as §3

Russian thistle = experiment: Test D preemergence; format: in vivo, Salsola kali; details: for Plant response rating (scale 0 to 100), Russian Thistle: 16 g ai/ha, taken as preemergence; for Plant response rating, Russian Thistle: Preemergence, scale 0 to 100
From the text: Seeds of plant species selected from bluegrass (annual bluegrass, Poa annua), blackgrass (Alopecurus myosuroides), canarygrass (littleseed canarygrass, Phalaris minor), chickweed (common chickweed, Stellaria media), galium (catchweed bedstraw, Galium aparine), bromegrass, downy (downy bromegrass, Bromus tectorum), field poppy (Papaver rhoeas), field violet (Viola arvensis), foxtail, green (green foxtail, Setaria viridis), deadnettle (henbit deadnettle, Lamium amplexicaule), ryegrass, Italian (Italian ryegrass, Lolium multiflorum), kochia (Kochia scoparia), lambsquarters (Chenopodium album), oilseed rape (Brassica napus), pigweed (redroot pigweed, Amaranthus retroflexus), chamomile (scentless chamomile, Matricaria inodora), speedwell (bird's-eye speedwell, Veronica persica), barley, spring (spring barley, Hordeum vulgare), wheat, spring (spring wheat, Triticum aestivum), buckwheat, wild (wild buckwheat, Polygonum convolvulus), mustard, wild (wild mustard, Sinapis arvensis), oat, wild (wild oat, Avena fatua), radish, wild (wild radish, Raphanus raphanistrum), windgrass (Apera spica-venti), Russian thistle (Salsola kali), barley, winter (winter barley, Hordeum vulgare), and wheat, winter (winter wheat, Triticum aestivum) were planted into a silt loam soil and treated preemergence with test chemicals formulated in a non-phytotoxic solvent mixture which included a surfactant.
At the same time, these species were planted in pots containing Redi-Earth® planting medium (Scotts Company, 14111 Scottslawn Road, Marysville, Ohio 43041) comprising spaghnum peat moss, vermiculite, wetting agent and starter nutrients and treated with postemergence applications of the test chemicals formulated in the same manner. Plants ranged in height from 2 to 18 cm (1- to 4-leaf stage). Treated plants and controls were maintained in a controlled growth environment for 14 to 21 days after which time all species were compared to controls and visually evaluated. Plant response ratings, summarized in Table D, are based on a scale of 0 to 100 where 0 is no effect and 100 is complete control. A dash (-) response means no test result.

[3] = Preemergence, 31 g ai/ha, scale 0 to 100
[4] = Preemergence, 62 g ai/ha, scale 0 to 100
[5] = preemergence, 8 g ai/ha, scale 0 to 100, 100 is complete control
[6] = Preemergence, 125 g ai/ha, scale 0 to 100
[7] = preemergence, 16 g ai/ha, scale 0 to 100, 100 is complete control
[8] = 125 g ai/ha, visual injury, 0 to 100 scale, approx. 10 days
[9] = 500 g ai/ha, visual injury after approx. 10 days, 0 to 100 scale (0 no effect, 100 complete control)
[10] = Postemergence, 500 g ai/ha, 0 to 100 scale (0 no effect, 100 complete control)
[11] = postemergence, 125 g ai/ha, about 10 days, visual rating on 0 to 100 scale (0 no effect, 100 complete control)
[12] = Preemergence, 250 g ai/ha, scale 0 to 100
[13] = Preemergence, 16 g ai/ha, scale 0 to 100

SMILES: CCc1cc(-c2ccc(C(F)(F)F)cc2)nn1Cc1ccnc(C(F)(F)F)c1 [Compound 110]
- Plant response rating, Soybean (soybean; [3]): 15
- Plant response rating, Soybean (soybean; [4]): 0
- Plant response rating, Soybean (soybean; [5]): 0
- Plant response rating, Velvetleaf (velvetleaf; [3]): 30
- Plant response rating, Velvetleaf (velvetleaf; [4]): 40
- Plant response rating, Velvetleaf (velvetleaf; [6]): 75
- Plant response rating, Velvetleaf (velvetleaf; [5]): 20
- Plant response rating, Velvetleaf (velvetleaf; [7]): 35
- Plant response rating, Common Waterhemp (common waterhemp; [3]): 85
- Plant response rating, Common Waterhemp (common waterhemp; [4]): 100
- Plant response rating, Common Waterhemp (common waterhemp; [6]): 100
- Plant response rating, Common Waterhemp (common waterhemp; [5]): 65
- Plant response rating, Common Waterhemp (common waterhemp; [7]): 65
- Plant response rating, Crabgrass, Brazil (crabgrass, Brazil; [3]): 100
- Plant response rating, Crabgrass, Brazil (crabgrass, Brazil; [4]): 100
- Plant response rating, Crabgrass, Brazil (crabgrass, Brazil; [6]): 100
- Plant response rating, Crabgrass, Brazil (crabgrass, Brazil; [5]): 50
- Plant response rating, Crabgrass, Brazil (crabgrass, Brazil; [7]): 70
- Plant response rating, Giant Foxtail (giant foxtail; [3]): 70
- Plant response rating, Giant Foxtail (giant foxtail; [4]): 95
- Plant response rating, Giant Foxtail (giant foxtail; [6]): 98
- Plant response rating, Giant Foxtail (giant foxtail; [5]): 25
- Plant response rating, Giant Foxtail (giant foxtail; [7]): 40
- Plant response rating, Arrowleaf Sida (arrowleaf sida; [3]): 65
- Plant response rating, Arrowleaf Sida (arrowleaf sida; [4]): 80
- Plant response rating, Arrowleaf Sida (arrowleaf sida; [6]): 90
- Plant response rating, Arrowleaf Sida (arrowleaf sida; [5]): 35
- Plant response rating, Arrowleaf Sida (arrowleaf sida; [7]): 65

SMILES: CCc1cc(C(=O)NOC(C)C)nn1Cc1ccnc(OC(F)F)c1 [Compound 126]
- Kochia plant response rating (kochia [1]; [8]): 100
- Kochia plant response rating (kochia [1]; [9]): 100
- Kochia plant response rating (kochia [2]; [10]): 100
- Kochia plant response rating (kochia [2]; [11]): 100
- Common Ragweed plant response rating (common ragweed; [10]): 80
- Common Ragweed plant response rating (common ragweed; [11]): 80

SMILES: CCc1cc(C(=O)NCC(F)(F)F)nn1Cc1ccnc(Br)c1 [Compound 224]
- Plant response rating, Soybean (soybean; [4]): 25
- Plant response rating, Soybean (soybean; [6]): 20
- Plant response rating, Soybean (soybean; [12]): 50
- Plant response rating, Velvetleaf (velvetleaf; [4]): 50
- Plant response rating, Velvetleaf (velvetleaf; [6]): 80
- Plant response rating, Velvetleaf (velvetleaf; [12]): 95
- Plant response rating, Common Waterhemp (common waterhemp; [4]): 100
- Plant response rating, Common Waterhemp (common waterhemp; [6]): 100
- Plant response rating, Common Waterhemp (common waterhemp; [12]): 100
- Plant response rating, Crabgrass, Brazil (crabgrass, Brazil; [4]): 98
- Plant response rating, Crabgrass, Brazil (crabgrass, Brazil; [6]): 100
- Plant response rating, Crabgrass, Brazil (crabgrass, Brazil; [12]): 100
- Plant response rating, Giant Foxtail (giant foxtail; [4]): 40
- Plant response rating, Giant Foxtail (giant foxtail; [6]): 75
- Plant response rating, Giant Foxtail (giant foxtail; [12]): 98
- Plant response rating, Arrowleaf Sida (arrowleaf sida; [4]): 35
- Plant response rating, Arrowleaf Sida (arrowleaf sida; [6]): 30
- Plant response rating, Arrowleaf Sida (arrowleaf sida; [12]): 35

SMILES: CCCc1cc(C(=O)NC2CC2)nn1Cc1ccnc(OC(F)F)c1 [Compound 205]
- Kochia plant response rating (0 to 100 scale) (kochia [1]; 125 g ai/ha, visual injury approx. 10 days after treatment): 100
- Kochia plant response rating (kochia [2]; Postemergence, 125 g ai/ha, 0 to 100 scale, 0 no effect, 100 complete control): 90
- Kochia plant response rating (kochia [2]; [10]): 90
- Common Ragweed plant response rating (common ragweed; [10]): 90
- Common Ragweed plant response rating (common ragweed; [11]): 80

SMILES: CCCc1cc(C(=O)NCC(F)(F)F)nn1Cc1ccnc(OC(F)F)c1 [Compound 127]
- Kochia plant response rating (kochia [1]; [8]): 100
- Kochia plant response rating (kochia [1]; [9]): 100
- Kochia plant response rating (kochia [2]; [10]): 100
- Kochia plant response rating (kochia [2]; [11]): 90
- Common Ragweed plant response rating (common ragweed; [10]): 80
- Common Ragweed plant response rating (common ragweed; [11]): 30

SMILES: CCOc1cc(C(=O)NCC(F)(F)F)nn1Cc1ccnc(OC(F)F)c1 [Compound 128]
- Kochia plant response rating (kochia [1]; [8]): 100
- Kochia plant response rating (kochia [1]; [9]): 100
- Kochia plant response rating (kochia [2]; [10]): 90
- Kochia plant response rating (kochia [2]; [11]): 90
- Common Ragweed plant response rating (common ragweed; [10]): 70
- Common Ragweed plant response rating (common ragweed; [11]): 30

SMILES: CCCc1cc(C(=O)NC(C)C)nn1Cc1cc(C(F)(F)F)nn1C [Compound 201]
- Plant response rating, Soybean (soybean; [13]): 0
- Plant response rating, Soybean (soybean; [6]): 40
- Plant response rating, Soybean (soybean; [12]): 40
- Plant response rating, Soybean (soybean; [7]): 0
- Plant response rating, Velvetleaf (velvetleaf; [4]): 0
- Plant response rating, Velvetleaf (velvetleaf; [6]): 30
- Plant response rating, Velvetleaf (velvetleaf; [12]): 100
- Plant response rating, Velvetleaf (velvetleaf; [7]): 0
- Plant response rating, Velvetleaf (velvetleaf; preemergence, scale 0 to 100, 100 is complete control): 0
- Plant response rating, Common Waterhemp (common waterhemp; [13]): 0
- Plant response rating, Common Waterhemp (common waterhemp; [4]): 75
- Plant response rating, Common Waterhemp (common waterhemp; [6]): 80
- Plant response rating, Common Waterhemp (common waterhemp; [12]): 100
- Plant response rating, Common Waterhemp (common waterhemp; [7]): 5
- Plant response rating, Crabgrass, Brazil (crabgrass, Brazil; [13]): 75
- Plant response rating, Crabgrass, Brazil (crabgrass, Brazil; [4]): 95
- Plant response rating, Crabgrass, Brazil (crabgrass, Brazil; [6]): 100
- Plant response rating, Crabgrass, Brazil (crabgrass, Brazil; [12]): 100
- Plant response rating, Crabgrass, Brazil (crabgrass, Brazil; [7]): 0
- Plant response rating, Giant Foxtail (giant foxtail; [4]): 75
- Plant response rating, Giant Foxtail (giant foxtail; [6]): 75
- Plant response rating, Giant Foxtail (giant foxtail; [12]): 100
- Plant response rating, Giant Foxtail (giant foxtail; [7]): 0
- Plant response rating, Arrowleaf Sida (arrowleaf sida; [13]): 0
- Plant response rating, Arrowleaf Sida (arrowleaf sida; [4]): 0
- Plant response rating, Arrowleaf Sida (arrowleaf sida; [6]): 0
- Plant response rating, Arrowleaf Sida (arrowleaf sida; [12]): 75
- Plant response rating, Arrowleaf Sida (arrowleaf sida; [7]): 0

SMILES: CCc1cc(C(=O)NOC(C)C)nn1Cc1cccc(OC(F)(F)F)c1 [Compound 70]
- Plant response rating (scale 0 to 100), Russian Thistle (Russian thistle): 0
- Plant response rating, Russian Thistle (Russian thistle; 31 g ai/ha): 0
- Plant response rating, Russian Thistle (Russian thistle; 62 g ai/ha): 90
- Plant response rating, Russian Thistle (Russian thistle; 125 g ai/ha): 90
- Plant response rating, Russian Thistle (Russian thistle; 250 g ai/ha): 100

SMILES: CCc1cc(C(=O)NC2CC2)nn1Cc1ccnc(C(F)(F)F)c1 [Compound 76]
- Plant response rating (scale 0 to 100), Russian Thistle (Russian thistle): 50
- Plant response rating, Russian Thistle (Russian thistle; 31 g ai/ha): 65
- Plant response rating, Russian Thistle (Russian thistle; 62 g ai/ha): 70
- Plant response rating, Russian Thistle (Russian thistle; 125 g ai/ha): 80
- Plant response rating, Russian Thistle (Russian thistle; 250 g ai/ha): 95

SMILES: CCCNC(=O)c1cc(OCC)n(Cc2ccnc(OC(F)F)c2)n1 [Compound 136]
- Kochia plant response rating (kochia [1]; [8]): 100
- Kochia plant response rating (kochia [1]; [9]): 100
- Kochia plant response rating (kochia [2]; [10]): 90
- Kochia plant response rating (kochia [2]; [11]): 90
- Common Ragweed plant response rating (common ragweed; [10]): 100
- Common Ragweed plant response rating (common ragweed; [11]): 30

SMILES: Cc1cc(C(=O)NCC(F)(F)F)nn1Cc1ccnc(C(F)(F)F)c1 [Compound 74]
- Plant response rating, Russian Thistle (Russian thistle; 31 g ai/ha): 70
- Plant response rating, Russian Thistle (Russian thistle; 62 g ai/ha): 85
- Plant response rating, Russian Thistle (Russian thistle; 125 g ai/ha): 95
